We go through eleven molecules from patent US8710043B2, “TRPM8 antagonists and their use in treatments” (Amgen Inc., priority 2011, dated 2014).

Assay [1] deals with icilin induced wet-dog shakes. The assay is described as follows: Inhibition of icilin induced shaking (wet-dog shakes) in rats. The format is in vivo. As to conditions: Rattus norvegicus, po; dose 1 mg/kg p.o., 2 h before icilin; male Sprague Dawley rats; shakes counted for 30 min post-icilin. The method, then:
Inhibition of Icilin Induced Shaking in Rats
Example compounds at doses ranging from 0.01 to 3 mg/kg (p.o, suspended in 5% Tween80/Oralplus or suspended in 2% HPMC-1% Tween-80 pH2.2 with MSA, 5 mL/kg) were administered to male Sprague Dawley rats (200-300 g, Harlan, n=6-8/treatment) 2 h before icilin to assess the ability to block the spontaneous wet-dog shake phenomena induced by icilin (i.p., suspended in 100% PEG400 at 0.5 mg/kg, 1 mL/kg or p.o., suspended in 2% HPMC-1% Tween-80 at 3 mg/kg, 2.5 mL/kg). Spontaneous wet-dog shakes were counted manually by two blinded observers or using LABORAS automation (Metris) for 30 min post-icilin.

In assay [2] the target is T1, human TRPM8 (Homo sapiens, UniProt Q7Z2W7).
T1 construct: expressed in transfected cells; host or cells: Chinese hamster ovary (CHO) cells, T-REx tetracycline-inducible system, co-transfected with aequorin
The assay is described as follows: Luminescence readout assay for measuring intracellular calcium, icilin activation. Type of assay: cell-based. The note with it: CHO cells expressing human TRPM8, aequorin luminescence, 1 μM icilin activation; read-out: hTRPM8 IC50. The procedure, abridged:
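The read-out was luminescence reporting intracellular calcium, recorded by a CCD-based luminometer. Compounds were preincubated for 2.5 min before agonist challenge with 1 μM icilin. Human TRPM8 was expressed in a stable T-REx CHO line, induced with 0.5 μg/mL tetracycline the day before.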
For orientation: Calcium assays in cells follow changes in intracellular calcium, usually with a dye or a luminescent sensor.

T1 sequence (Q7Z2W7 whole entry): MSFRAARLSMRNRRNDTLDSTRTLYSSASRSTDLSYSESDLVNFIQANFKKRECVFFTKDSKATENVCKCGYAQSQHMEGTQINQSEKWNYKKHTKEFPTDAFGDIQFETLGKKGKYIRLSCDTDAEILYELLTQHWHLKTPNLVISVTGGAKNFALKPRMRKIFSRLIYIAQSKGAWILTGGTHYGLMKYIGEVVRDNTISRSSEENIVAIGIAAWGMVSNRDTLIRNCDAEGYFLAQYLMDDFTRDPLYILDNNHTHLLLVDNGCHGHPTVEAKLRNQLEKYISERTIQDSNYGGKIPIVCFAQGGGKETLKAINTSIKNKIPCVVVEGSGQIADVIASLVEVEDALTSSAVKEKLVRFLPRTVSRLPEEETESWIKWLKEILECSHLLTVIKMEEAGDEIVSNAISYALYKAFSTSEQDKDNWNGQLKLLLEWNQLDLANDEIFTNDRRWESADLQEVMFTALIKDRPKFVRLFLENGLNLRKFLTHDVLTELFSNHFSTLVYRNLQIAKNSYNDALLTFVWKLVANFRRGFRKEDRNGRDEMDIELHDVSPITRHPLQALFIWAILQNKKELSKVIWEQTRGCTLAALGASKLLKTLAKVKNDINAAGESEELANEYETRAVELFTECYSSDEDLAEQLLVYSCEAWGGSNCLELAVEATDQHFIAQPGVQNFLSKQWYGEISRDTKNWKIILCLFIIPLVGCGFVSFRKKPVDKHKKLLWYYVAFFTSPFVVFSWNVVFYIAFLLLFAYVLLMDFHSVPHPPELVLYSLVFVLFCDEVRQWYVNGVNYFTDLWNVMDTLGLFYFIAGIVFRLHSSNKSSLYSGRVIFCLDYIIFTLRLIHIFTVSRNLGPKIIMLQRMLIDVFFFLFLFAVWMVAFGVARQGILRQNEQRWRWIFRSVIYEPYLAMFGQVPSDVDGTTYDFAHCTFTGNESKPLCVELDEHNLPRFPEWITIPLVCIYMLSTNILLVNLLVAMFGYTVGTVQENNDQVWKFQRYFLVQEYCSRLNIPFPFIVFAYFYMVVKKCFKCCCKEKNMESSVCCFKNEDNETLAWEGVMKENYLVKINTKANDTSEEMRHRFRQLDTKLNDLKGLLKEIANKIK

For `O=C(N[C@@H](c1ccc(OC(F)(F)F)c(F)c1)c1ncccc1F)c1ccc(=O)n(CCO)c1` [Example 297, (S)-N-((3-fluoro-4-(trifluoromethoxy)phenyl)(3-fluoropyridin-2-yl)methyl)-1-(2-hydroxyethyl)-6-oxo-1,6-dihydropyridine-3-carboxamide], the inhibition in vivo (commonly how much of the control response was suppressed) at 1 mg/kg in assay [1] came to 78%. In addition, in assay [2], the IC50 (as a rule, the concentration that gives 50% inhibition) was 16.8 nM.

For `O=C(N[C@@H](c1ccc(OC(F)(F)F)cc1)c1ncccc1F)c1ccc2oc(=O)[nH]c2c1` [Example 79, (S)-N-((3-fluoropyridin-2-yl)(4-(trifluoromethoxy)phenyl)methyl)-2-oxo-2,3-dihydrobenzo[d]oxazole-5-carboxamide], the inhibition in vivo at 1 mg/kg in assay [1] came out at 99%. Also, the IC50 in assay [2] came out at 5.1 nM. Consider `O=C1Cc2cc(C(=O)N[C@@H](c3ccc(OC(F)(F)F)cc3)c3ncccc3F)ccc2N1` [Example 91, (S)-N-((3-fluoropyridin-2-yl)(4-(trifluoromethoxy)phenyl)methyl)-2-oxoindoline-5-carboxamide], for which testing at 1 mg/kg in assay [1] gave an inhibition in vivo of 100%. For the same molecule, in assay [2], the IC50 was 13.7 nM.

The molecule `O=C(N[C@@H](c1ccc(C(F)(F)F)cc1)c1ncccc1F)c1ccc(=O)n(CCO)c1` [Example 370, (S)-N-((3-fluoropyridin-2-yl)(4-(trifluoromethyl)phenyl)methyl)-1-(2-hydroxyethyl)-6-oxo-1,6-dihydropyridine-3-carboxamide] displayed an inhibition in vivo at 1 mg/kg in assay [1] of 50%. Besides, the IC50 in assay [2] came out at 33.7 nM. `O=C(N[C@@H](c1ccc(OC(F)(F)F)c(F)c1)c1ccccn1)c1ccc(=O)[nH]c1` [Example 293, (S)-N-((3-fluoro-4-(trifluoromethoxy)phenyl)(pyridin-2-yl)methyl)-6-oxo-1,6-dihydropyridine-3-carboxamide]: the inhibition in vivo at 1 mg/kg in assay [1] worked out at 96%. Besides, the IC50 in assay [2] stood at 13.7 nM. As for `O=C(N[C@@H](c1ccc(OC(F)(F)F)cc1F)c1ncccc1F)c1ccc(=O)[nH]c1` [Example 386, (S)-N-((2-fluoro-4-(trifluoromethoxy)phenyl)(3-fluoropyridin-2-yl)methyl)-6-oxo-1,6-dihydropyridine-3-carboxamide 2,2,2-trifluoroacetate], testing at 1 mg/kg in assay [1] gave an inhibition in vivo of 97%. Also, the IC50 in assay [2] was 10.5 nM. In turn, `O=C(N[C@@H](c1ccc(OC(F)(F)F)cc1)c1ncccc1F)c1ccc(=O)[nH]c1` [Example 1, (S)-N-((3-fluoropyridin-2-yl)(4-(trifluoromethoxy)phenyl)methyl)-6-oxo-1,6-dihydropyridine-3-carboxamide] came in with an inhibition in vivo at 1 mg/kg in assay [1] of 100%. The IC50 in assay [2] was found to be 9.8 nM. With `Cc1cc(C(=O)N[C@@H](c2ccc(C(F)(F)F)cc2)c2ncccc2F)c[nH]c1=O` [Example 373, (S)-N-((3-fluoropyridin-2-yl)(4-(trifluoromethyl)phenyl)methyl)-5-methyl-6-oxo-1,6-dihydropyridine-3-carboxamide], at 1 mg/kg the inhibition in vivo in assay [1] was 64%. Besides, the IC50 in assay [2] came out at 20.6 nM. In the case of `O=C(N[C@@H](c1ccc(Cl)c(F)c1)c1ncccc1F)c1ccc(=O)[nH]c1` [Example 344, (S)-N-((4-chloro-3-fluorophenyl)(3-fluoropyridin-2-yl)methyl)-6-oxo-1,6-dihydropyridine-3-carboxamide], the IC50 in assay [2] was 45.1 nM. Turning to `CC1(C)C[C@H]1c1cccnc1[C@@H](NC(=O)c1ccc2ncccc2c1)c1ccc(C(F)(F)F)cc1` [Example 233, N-((S)-(3-((R)-2,2-dimethylcyclopropyl)pyridin-2-yl)(4-(trifluoromethyl)phenyl)methyl)quinoline-6-carboxamide], in assay [2], the IC50 came out at 83.1 nM. With `CC(=O)Nc1ccc(C(=O)N[C@@H](c2ccc(OC(F)(F)F)c(F)c2)c2ncccc2F)cc1O` [Example 390, (S)-4-acetamido-N-((3-fluoro-4-(trifluoromethoxy)phenyl)(3-fluoropyridin-2-yl)methyl)-3-hydroxybenzamide], the half-maximal inhibitory concentration (IC50) in assay [2] worked out at 136 nM.
